Holding throughout (settings): Table 35
The target of one assay is MLKL (full length) (Homo sapiens (Human), UniProt Q8NB16). The assay is described as follows: KINOMEscan binding assay, MLKL (full length). The procedure: (§1) Kinase assays. For most assays, kinase-tagged T7 phage strains were grown in parallel in 24-well blocks in an E. coli host derived from the BL21 strain. E. coli were grown to log-phase and infected with T7 phage from a frozen stock (multiplicity of infection=0.4) and incubated with shaking at 32° C. until lysis (90-150 minutes).
Chain of MLKL (full length) (Q8NB16 whole entry): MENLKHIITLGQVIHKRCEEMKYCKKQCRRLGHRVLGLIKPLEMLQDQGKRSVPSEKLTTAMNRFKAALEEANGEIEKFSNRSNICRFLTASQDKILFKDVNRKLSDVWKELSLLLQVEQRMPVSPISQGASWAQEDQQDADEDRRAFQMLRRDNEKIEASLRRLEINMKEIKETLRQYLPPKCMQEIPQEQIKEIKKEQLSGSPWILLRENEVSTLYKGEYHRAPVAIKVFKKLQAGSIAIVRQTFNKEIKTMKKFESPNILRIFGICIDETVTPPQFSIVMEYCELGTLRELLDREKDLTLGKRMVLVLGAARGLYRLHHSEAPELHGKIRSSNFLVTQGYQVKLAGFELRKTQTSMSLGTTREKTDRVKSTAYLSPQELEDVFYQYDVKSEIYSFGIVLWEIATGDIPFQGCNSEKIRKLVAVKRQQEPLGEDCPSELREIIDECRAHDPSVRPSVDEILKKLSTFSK
(§2) The Hill Slope was set to −1.

The target of a further assay is RIP3 (Homo sapiens (Human), UniProt Q9Y572). The assay is described as follows: KINOMEscan binding assay, RIP3. How it is done:
as §1, §2

The target of a further assay is RIP1 (Homo sapiens (Human), UniProt Q13546). The assay is described as follows: KINOMEscan binding assay, RIP1.
Chain of RIP1 (Q13546 whole entry): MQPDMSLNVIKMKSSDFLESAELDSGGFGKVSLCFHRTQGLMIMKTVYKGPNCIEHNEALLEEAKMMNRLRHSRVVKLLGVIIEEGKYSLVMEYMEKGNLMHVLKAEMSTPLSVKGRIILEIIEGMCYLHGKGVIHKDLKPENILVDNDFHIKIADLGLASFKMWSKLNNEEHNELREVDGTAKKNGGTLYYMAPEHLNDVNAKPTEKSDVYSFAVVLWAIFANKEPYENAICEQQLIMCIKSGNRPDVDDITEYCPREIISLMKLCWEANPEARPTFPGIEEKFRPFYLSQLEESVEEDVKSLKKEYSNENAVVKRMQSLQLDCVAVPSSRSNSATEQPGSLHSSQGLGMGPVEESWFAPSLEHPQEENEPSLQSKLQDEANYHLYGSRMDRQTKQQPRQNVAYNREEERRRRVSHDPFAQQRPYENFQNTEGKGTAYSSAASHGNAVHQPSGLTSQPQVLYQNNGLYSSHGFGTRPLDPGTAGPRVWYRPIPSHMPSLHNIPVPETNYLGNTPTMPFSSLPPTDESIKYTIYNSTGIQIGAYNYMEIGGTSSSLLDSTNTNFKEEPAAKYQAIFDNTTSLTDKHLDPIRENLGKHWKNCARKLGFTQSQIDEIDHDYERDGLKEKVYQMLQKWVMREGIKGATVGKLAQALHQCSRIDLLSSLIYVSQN

The structures appear in SMILES notation.

Chain of RIP3 (Q9Y572 whole entry): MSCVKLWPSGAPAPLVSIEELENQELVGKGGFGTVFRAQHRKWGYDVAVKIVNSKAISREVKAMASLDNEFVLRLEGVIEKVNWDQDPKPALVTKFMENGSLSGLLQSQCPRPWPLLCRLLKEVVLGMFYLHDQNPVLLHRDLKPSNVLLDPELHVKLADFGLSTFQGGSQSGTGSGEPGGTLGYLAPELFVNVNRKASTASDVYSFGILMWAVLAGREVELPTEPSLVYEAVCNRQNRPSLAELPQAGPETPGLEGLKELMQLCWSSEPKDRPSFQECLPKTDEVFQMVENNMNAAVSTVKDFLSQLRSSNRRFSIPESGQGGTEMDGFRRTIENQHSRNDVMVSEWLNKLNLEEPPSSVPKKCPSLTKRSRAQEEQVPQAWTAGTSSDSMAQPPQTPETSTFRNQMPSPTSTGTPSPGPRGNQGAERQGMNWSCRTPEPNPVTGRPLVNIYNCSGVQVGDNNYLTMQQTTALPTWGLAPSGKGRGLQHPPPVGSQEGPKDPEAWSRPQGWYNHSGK

For `NC(=O)c1c(-c2ccc(NS(=O)(=O)C(F)F)cc2)n[nH]c1Nc1ccc(C(F)(F)F)cn1` [Compound 145, 3-(4-((difluoromethyl)sulfonamido)phenyl)-5-((5-(trifluoromethyl)pyridine-2-yl)amino)-1H-pyrazole-4-carboxamide], the Kd (in general, a measure of binding affinity in units of concentration) on MLKL (full length) was less than 0.01 µM; on RIP3, more than 30 µM; at RIP1 it was more than 30 µM.
On to `Cc1cnc(Nc2[nH]nc(-c3ccc(NS(=O)(=O)CC(F)(F)F)c(OCc4ccc(Cl)c(F)c4)c3)c2C(N)=O)cn1` [Compound 146, 3-(3-((4-chloro-3-fluorobenzyl)oxy)-4-((2,2,2-trifluoroethyl)sulfonamido)phenyl)-5-((5-methylpyrazin-2-yl)amino)-1H-pyrazole-4-carboxamide], for which the results for the Kd at MLKL (full length), on RIP3 and on RIP1 were less than 0.01 µM, more than 30 µM and more than 30 µM, respectively.
With `NC(=O)c1c(-c2ccc(NS(=O)(=O)C(F)F)c(Oc3ccc(F)cc3)c2)n[nH]c1Nc1cccc(C(F)(F)F)n1` [Compound 147, 3-(4-((difluoromethyl)sulfonamido)-3-(4-fluorophenoxy)phenyl)-5-((6-(trifluoromethyl)pyridine-2-yl)amino)-1H-pyrazole-4-carboxamide], the Kd on MLKL (full length) is less than 0.01 µM; on RIP3, more than 30 µM; on RIP1, more than 30 µM.
Consider `NC(=O)c1c(-c2ccc(NS(=O)(=O)CC(F)(F)F)c(Oc3ccc(F)cc3)c2)n[nH]c1Nc1cccc(C(F)(F)F)n1` [Compound 148, 3-(3-(4-fluorophenoxy)-4-((2,2,2-trifluoroethyl)sulfonamido)phenyl)-5-((6-(trifluoromethyl)pyridine-2-yl)amino)-1H-pyrazole-4-carboxamide], for which the Kd at MLKL (full length) was less than 0.01 µM; at RIP3, more than 30 µM; at RIP1, more than 30 µM.
With `CCS(=O)(=O)Nc1ccc(-c2n[nH]c(Nc3cccc(C(F)(F)F)n3)c2C(N)=O)cc1Oc1ccc(F)cc1` [Compound 149, 3-(4-(ethylsulfonamido)-3-(4-fluorophenoxy)phenyl)-5-((6-(trifluoromethyl)pyridine-2-yl)amino)-1H-pyrazole-4-carboxamide], the Kd is less than 0.01 µM on MLKL (full length), more than 30 µM at RIP3 and more than 30 µM on RIP1.
Consider `NC(=O)c1c(-c2ccc(NS(=O)(=O)C(F)F)c(OCc3ccc(F)c(F)c3)c2)n[nH]c1Nc1cccc(C(F)(F)F)n1` [Compound 151, 3-(3-((3,4-difluorobenzyl)oxy)-4-((difluoromethyl)sulfonamido)phenyl)-5-((6-(trifluoromethyl)pyridine-2-yl)amino)-1H-pyrazole-4-carboxamide], for which the Kd at MLKL (full length) was less than 0.01 µM; on RIP3, more than 30 µM; on RIP1, more than 30 µM.
With `CCS(=O)(=O)Nc1ccc(-c2n[nH]c(Nc3cnccn3)c2C(N)=O)cc1OC1(c2ccccc2)CC1` [Compound 152, 3-(4-(ethylsulfonamido)-3-(1-phenylcyclopropoxy)phenyl)-5-(pyrazin-2-ylamino)-1H-pyrazole-4-carboxamide], the results for the Kd at MLKL (full length), at RIP3 and on RIP1 were less than 0.01 µM, more than 30 µM and more than 30 µM, respectively.
For `NC(=O)c1c(-c2ccc(NS(=O)(=O)CC(F)(F)F)cc2)n[nH]c1Nc1ccc(C(F)(F)F)cn1` [Compound 153, 3-(4-((2,2,2-trifluoroethyl)sulfonamido)phenyl)-5-((5-(trifluoromethyl)pyridine-2-yl)amino)-1H-pyrazole-4-carboxamide], the figures for the Kd at MLKL (full length), at RIP3 and at RIP1 were less than 0.01 µM, more than 30 µM and more than 30 µM, respectively.
Turning to `C[C@H](Oc1cc(-c2n[nH]c(Nc3ccccn3)c2C(N)=O)ccc1NS(=O)(=O)CC(F)(F)F)c1ccc(F)cc1` [Compound 154, (S)-3-(3-(1-(4-fluorophenyl)ethoxy)-4-((2,2,2-trifluoroethyl)sulfonamido)phenyl)-5-(pyridine-2-ylamino)-1H-pyrazole-4-carboxamide], the Kd at MLKL (full length) was less than 0.01 µM; at RIP3 it was more than 30 µM; at RIP1 it was more than 30 µM.

The values are drawn from patent US20250074891A1 (Anaxis Pharma Pty Ltd., priority 2021, published 2025).
